Read-outs that look alike come from different tables or passages of the source.
How the values were obtained:
[1] = tested on: Myotonic Dystrophy 1 affected patient fibroblasts (Coriel GM04602; 1600 CTG repeats); test: DM1 foci reduction assay (EC50 assay; CAG10-Cy3 FISH, foci per nucleus); format: cell-based; settings: Homo sapiens, Fibroblast
Method in brief: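 GM04602 DM1 patient fibroblasts (1600 CTG repeats) seeded 24 h, then treated 48 h at 37 °C with an 8-point 1:3 dose series from 3 μM. Cells PFA-fixed, ethanol-permeabilized and hybridized overnight with 5 nM CAG10-Cy3 probe, DAPI counterstained. Imaged at 20×, 4 fields per well, as average foci per nucleus.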

F35T cells = test: Foci reduction in FECD (CAG10-Cy3 FISH, foci per nucleus); format: cell-based
Method in brief: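 F35T cells, 5000 per well, were treated for 48 h at 37 °C, 5% CO2 in an 8-point dose response. Cells were then fixed in 4% PFA, permeabilized in 70% ethanol and hybridized overnight at 37 °C with a CAG10-Cy3 probe in 30% formamide/2×SSC. After DAPI staining, imaging gave foci per nucleus.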

[2] = DM1 patient fibroblasts, 48 h treatment, foci per nucleus, read-out: DM1 EC50, 48 h
[3] = F35T cells, 48 h treatment, foci per nucleus, read-out: FECD EC50, 48 h
[4] = DM1 patient fibroblasts, foci per nucleus, 48 h treatment, read-out: DM1 EC50, 48 h
[5] = F35T cells, foci per nucleus, 48 h treatment, read-out: FECD EC50, 48 h

Row | Structure (SMILES) | EC50 [1, 2] [nM] | EC50 (F35T cells; [3]) [nM] | other results
1 | CCCCn1cc(NC(=O)c2nc(NC(=O)CCNC(=O)c3cc(NC(=O)c4nccn4C)cn3C)cn2C)cc1C(=O)NCC[C@@H](N)C(=O)Nc1cn(C)c(C(=O)NCCC(=O)Nc2cc(C(=O)Nc3cn(C)c(C(=O)NCCC(=O)N4CCN(C)CC4)n3)n(C)c2)n1 [Compound B-408] | 100 to 500 | 100 to 500 | 
2 | Cn1cc(NC(=O)c2nc(NC(=O)CCNC(=O)c3cc(NC(=O)c4nccn4C)cn3C)cn2C)cc1C(=O)NCCCC(=O)Nc1cn(C)c(C(=O)NCCC(=O)Nc2cc(C(=O)Nc3cn(C)c(C(=O)NCCC(=O)NCCOCCOCCOCCOCCN4CCN(C5CCNCC5)CC4)n3)n(C)c2)n1 [Compound B-22] | 100 to 500 | 100 to 500 | 
3 | CNC(=O)c1nc(NC(=O)c2cc(NC(=O)CCNC(=O)c3nc(NC(=O)CCCNC(=O)c4cc(NC(=O)c5nc(NC(=O)CCNC(=O)c6cc(NC(=O)c7nccn7C)cn6C)cn5C)cn4C)cn3C)cn2C)cn1C [Compound B-310] | < 100 | < 100 | 
4 | CN(CCCN)CCCNC(=O)c1nc(NC(=O)c2cc(NC(=O)CCNC(=O)c3nc(NC(=O)CCCNC(=O)c4cc(NC(=O)c5nc(NC(=O)CCNC(=O)c6cc(NC(=O)c7nccn7C)cn6C)cn5C)cn4CCCCCCN=[N+]=[N-])cn3C)cn2C)cn1C [Compound B-364] | 100 to 500 | > 1000 | 
5 | CCN(CC)CCCC[C@H](NC(=O)C1CCNCC1)C(=O)NCCOCCOCCOCCOCCOCCNC(=O)CCNC(=O)c1nc(NC(=O)c2cc(NC(=O)CCNC(=O)c3nc(NC(=O)CCCNC(=O)c4cc(NC(=O)c5nc(NC(=O)CCNC(=O)c6cc(NC(=O)c7nccn7C)cn6C)cn5C)cn4C)cn3C)cn2C)cn1C [Compound B-95] | 500 to 1000 | > 1000 | 
6 | CCCNC(=O)CCNC(=O)c1nc(NC(=O)c2cc(NC(=O)CCNC(=O)c3nc(NC(=O)CCCNC(=O)c4cc(NC(=O)c5nc(NC(=O)CCNC(=O)c6cc(NC(=O)c7nccn7C)cn6C)cn5C)cn4CC(C)C)cn3C)cn2C)cn1C [Compound B-403] | < 100 | < 100 | 
7 | CN(CCCNC(=O)c1cccc(C(=O)OC(C)(C)C)c1)CCCNC(=O)c1cc(NC(=O)CCNC(=O)c2nc(NC(=O)CCCNC(=O)c3cc(NC(=O)c4nc(NC(=O)CCNC(=O)c5cc(NC(=O)c6nccn6C)cn5C)cn4C)cn3CCCCCCN=[N+]=[N-])cn2C)cn1C [Compound B-359] | > 1000 | > 1000 | 
8 | Cn1cc(NC(=O)c2nc(NC(=O)CCNC(=O)c3cc(NC(=O)c4nccn4C)cn3C)cn2C)cc1C(=O)NCCCC(=O)Nc1cn(C)c(C(=O)NCCC(=O)Nc2cc(C(=O)Nc3cn(C)c(C(=O)NCCC(N)=O)n3)n(C)c2)n1 [Compound B-307] | 100 to 500 | < 100 | 
9 | Cn1cc(NC(=O)c2nc(NC(=O)CCNC(=O)c3cc(NC(=O)c4nccn4C)cn3C)cn2C)cc1C(=O)NCCCC(=O)Nc1cn(C)c(C(=O)NCCC(=O)Nc2cc(C(=O)Nc3cn(C)c(C(=O)NCCC(=O)N4CCC(N5CCNCC5)CC4)n3)n(C)c2)n1 [Compound B-31] | < 100 | 100 to 500 | 
10 | Cn1cc(NC(=O)c2nc(NC(=O)CCNC(=O)c3cc(NC(=O)c4nccn4C)cn3C)cn2C)cc1C(=O)NCCCC(=O)Nc1cn(C)c(C(=O)NCCC(=O)Nc2cc(C(=O)Nc3cn(C)c(C(=O)NCCc4cnc(CNC(=O)OCc5ccccc5)[nH]4)n3)n(C)c2)n1 [Compound B-202] | 100 to 500 | < 100 | 
11 | CCCNC(=O)c1nc(NC(=O)c2cc(NC(=O)CCNC(=O)c3nc(NC(=O)CCCNC(=O)c4cc(NC(=O)c5nc(NC(=O)CCNC(=O)c6cc(NC(=O)c7nccn7C)cn6C)cn5C)cn4CCCCCCNC(=O)CCOCCOCCOCCOCCOCCOC)cn3C)cn2C)cn1C [Compound B-235] | > 1000 | > 1000 | 
12 | Cn1cc(NC(=O)c2nc(NC(=O)CCNC(=O)c3cc(NC(=O)c4nccn4C)cn3C)cn2C)cc1C(=O)NCCCC(=O)Nc1cn(C)c(C(=O)NCCC(=O)Nc2cc(C(=O)Nc3cn(C)c(C(=O)NCCC(=O)NC4COP(=O)(Oc5ccccc5Cl)OC4)n3)n(C)c2)n1 (centres unmarked) [Compound B-391] |  |  | EC50 ([1]; 48 h, read-out: DM1 EC50, 48 h (nM)): > 1000 nM; EC50 (F35T cells; 48 h, read-out: FECD EC50, 48 h (nM)): > 1000 nM
13 | CN(CCCNC(=O)c1cccc(C(=O)O)c1)CCCNC(=O)c1nc(NC(=O)c2cc(NC(=O)CCNC(=O)c3nc(NC(=O)CCCNC(=O)c4cc(NC(=O)c5nc(NC(=O)CCNC(=O)c6cc(NC(=O)c7nccn7C)cn6C)cn5C)cn4C)cn3C)cn2C)cn1C [Compound B-109] | 100 to 500 | 100 to 500 | 
14 | CC(=O)NCCOCCn1cc(NC(=O)c2nc(NC(=O)CCNC(=O)c3cc(NC(=O)c4nccn4C)cn3C)cn2C)cc1C(=O)NCCCC(=O)Nc1cn(C)c(C(=O)NCCC(=O)Nc2cc(C(=O)Nc3cn(C)c(C(=O)NCCC(=O)N4CCC(C#CC#CC5CCN(C(C)=O)CC5)CC4)n3)n(C)c2)n1 [Compound B-299] | 100 to 500 | < 100 | 
15 | Cn1cc(NC(=O)c2nc(NC(=O)CCNC(=O)c3cc(NC(=O)c4nccn4C)cn3C)cn2C)cc1C(=O)NCCCC(=O)Nc1cn(C)c(C(=O)NCCC(=O)Nc2cc(C(=O)Nc3cn(C)c(C(=O)NCCC(=O)N4CCN(C5CCN(C(=O)OCc6ccccc6)CC5)CC4)n3)n(C)c2)n1 [Compound B-32] | < 100 | < 100 | 
16 | COCCOCCOCCOCCOCCOCCOc1ccccc1C#CCNCCCNC(=O)c1nc(NC(=O)c2cc(NC(=O)CCNC(=O)c3nc(NC(=O)CCCNC(=O)c4cc(NC(=O)c5nc(NC(=O)CCNC(=O)c6cc(NC(=O)c7nccn7C)cn6C)cn5C)cn4C)cn3C)cn2C)cn1C [Compound B-414] |  |  | EC50 [1, 4]: 100 to 500 nM; EC50 (F35T cells; [5]): < 100 nM
17 | Cn1cc(NC(=O)c2nc(NC(=O)CCNC(=O)c3cc(NC(=O)c4nccn4C)cn3C)cn2C)cc1C(=O)NCCCC(=O)Nc1cn(C)c(C(=O)NCCC(=O)Nc2cc(C(=O)Nc3cn(C)c(C(=O)NCCC(=O)NCCOCCOCCOCCOCCN4CCN(C5CCN(C(=O)OCc6ccccc6)CC5)CC4)n3)n(C)c2)n1 [Compound B-21] | 100 to 500 | 100 to 500 | 
18 | C=C(NCCC(=O)Nc1cc(C(=O)Nc2cn(C)c(C(=O)NCCC(=O)NCCC)n2)n(C)c1)c1nc(NC(=O)CCCNC(=O)c2cc(NC(=O)c3nc(NC(=O)CCNC(=O)c4cc(NC(=O)c5nccn5C)cn4C)cn3C)cn2CCCNC(=O)c2ccccc2)cn1C [Compound B-399] | 500 to 1000 | < 100 | 
19 | CN1CCN(C(=O)CCNC(=O)c2nc(NC(=O)c3cc(NC(=O)CCNC(=O)c4nc(NC(=O)C[C@@H](N)CNC(=O)c5cc(NC(=O)c6nc(NC(=O)CCNC(=O)c7cc(NC(=O)c8nccn8C)cn7C)cn6C)cn5C)cn4C)cn3C)cn2C)CC1 [Compound B-416] |  |  | EC50 [1, 4]: 500 to 1000 nM; EC50 (F35T cells; [5]): > 1000 nM
20 | CCCNC(=O)CCNC(=O)c1nc(NC(=O)c2cc(NC(=O)CCNC(=O)c3nc(NC(=O)CCCNC(=O)c4cc(NC(=O)c5nc(NC(=O)CCNC(=O)c6cc(NC(=O)c7nccn7C)cn6C)cn5C)cn4CCCN=[N+]=[N-])cn3C)cn2C)cn1C [Compound B-271] | < 100 | < 100 | 
21 | COCCOCCOCCOCCN(CCCNC(=O)CCNC(=O)c1nc(NC(=O)c2cc(NC(=O)CCNC(=O)c3nc(NC(=O)CCCNC(=O)c4cc(NC(=O)c5nc(NC(=O)CCNC(=O)c6cc(NC(=O)c7nccn7C)cn6C)cn5C)cn4C)cn3C)cn2C)cn1C)CCOCCOCCOCCOC [Compound B-241] | 100 to 500 | 100 to 500 | 
22 | CCCNC(=O)CCNC(=O)c1nc(NC(=O)c2cc(NC(=O)CCNC(=O)c3nc(NC(=O)CCCNC(=O)c4cc(NC(=O)c5nc(NC(=O)CCNC(=O)c6cc(NC(=O)c7nc(N=C(N)N)cn7C)cn6C)cn5C)cn4C)cn3C)cn2C)cn1C [Compound B-325] | 500 to 1000 | > 1000 | 

— patent US20250368628A1, “METHODS AND COMPOUNDS FOR MODULATING INHERITED GENETIC DISEASES” (Design Therapeutics, Inc., priority 2022, published 2025)
